This note sets out measurements from patent US20110207784A1, “OXADIAZOLE-2-OXIDES AS ANTISCHISTOSOMAL AGENTS” (THE UNITED STATES OF AMERICA, AS REPRESENTED BY THE …, priority 2008, published 2011).

Structures are written as SMILES. Like-named read-outs stand apart in the source and are kept apart here.

The target in assay [1] is Recombinant thioredoxin glutathione reductase (TGR) (Schistosoma mansoni, UniProt Q962Y6). The assay can be described thus: biochemical. Type of assay: biochemical, S. mansoni.
The subject of assay [2] is freshly perfused S. mansoni worms. The assay is described as follows: ex vivo parasite killing assay. In kind it is cell-based.

Recombinant thioredoxin glutathione reductase (TGR), sequence (Q962Y6 1-598): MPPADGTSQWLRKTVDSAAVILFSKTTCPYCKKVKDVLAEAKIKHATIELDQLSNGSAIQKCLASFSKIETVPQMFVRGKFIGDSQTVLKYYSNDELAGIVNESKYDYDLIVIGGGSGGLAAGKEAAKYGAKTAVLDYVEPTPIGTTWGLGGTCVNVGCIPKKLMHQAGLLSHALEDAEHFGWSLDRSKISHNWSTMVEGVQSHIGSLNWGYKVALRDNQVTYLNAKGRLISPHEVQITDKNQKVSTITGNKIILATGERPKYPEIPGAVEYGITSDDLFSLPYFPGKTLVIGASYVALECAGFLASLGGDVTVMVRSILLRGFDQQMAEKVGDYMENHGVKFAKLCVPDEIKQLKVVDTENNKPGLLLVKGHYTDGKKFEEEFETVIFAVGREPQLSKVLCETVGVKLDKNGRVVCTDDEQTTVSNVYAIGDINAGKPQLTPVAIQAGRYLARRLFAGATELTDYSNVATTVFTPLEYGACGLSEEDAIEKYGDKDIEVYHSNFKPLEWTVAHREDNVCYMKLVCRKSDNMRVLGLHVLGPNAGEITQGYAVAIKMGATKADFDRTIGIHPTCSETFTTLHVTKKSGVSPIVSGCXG

With `COc1ccc(-c2no[n+]([O-])c2C#N)cc1` [Compound 26, 3-cyano-4-(4-methoxyphenyl)-1,2,5-oxadiazole-2-oxide], the IC50 in assay [1] (read-out: TGR IC50) was 10 µM. For the compound `N#Cc1c(-c2ccc([N+](=O)[O-])cc2)no[n+]1[O-]` [Compound 25, 3-cyano-4-(4-nitrophenyl)-1,2,5-oxadiazole-2-oxide], the IC50 in assay [1] was 2.2 µM. With `N#Cc1c(-c2cccc(C(F)(F)F)c2)no[n+]1[O-]` [Compound 32, 3-cyano-4-(3-(trifluoromethyl)phenyl)-1,2,5-oxadiazole-2-oxide], in assay [1] (read-out: TGR IC50), the IC50 is 2.5 µM. The same measure, in the same setting: in the case of `N#Cc1c(-c2ccc(Cl)cc2)no[n+]1[O-]` [Compound 22, 4-(4-chlorophenyl)-3-cyano-1,2,5-oxadiazole-2-oxide] it was 4 µM. Take `N#Cc1c(-c2cccc(-c3no[n+]([O-])c3C#N)c2)no[n+]1[O-]` [Compound 43, 4,4′-(1,3-phenylene)bis(3-cyano-1,2,5-oxadiazole-2-oxide)]: the IC50 in assay [1] (read-out: TGR IC50) came out at 3.5 µM. Further, the “worms judged to be dead” value in assay [2] was 100%.

With `Cc1c(-c2ccccc2)no[n+]1[O-]` [Compound 50], the “TGR inhibition, potency in words” value in assay [1] was “less potent than compounds 52, 51, and 56”. For the compound `COc1ccccc1-c1no[n+]([O-])c1C#N` [Compound 34, 3-cyano-4-(2-methoxyphenyl)-1,2,5-oxadiazole-2-oxide], the IC50 in assay [1] (read-out: TGR IC50) came out at 7.9 µM. Same read-out and setting: in the case of `N#Cc1c(-c2ccc(F)cc2)no[n+]1[O-]` [Compound 21, 3-cyano-4-(4-fluorophenyl)-1,2,5-oxadiazole-2-oxide] it was 7.9 µM; in that of `O=Cc1c(-c2ccccc2)no[n+]1[O-]` [Compound 52], 0.11 µM; in that of `N#Cc1c(-c2cccc(O)c2)no[n+]1[O-]` [Compound 46, 3-cyano-4-(3-hydroxyphenyl)-1,2,5-oxadiazole-2-oxide], 7.1 µM. The same measure, in the same setting: in the case of `N#Cc1c(-c2ccc(C(F)(F)F)cc2)no[n+]1[O-]` [Compound 24, 3-cyano-4-(4-(trifluoromethyl)phenyl)-1,2,5-oxadiazole-2-oxide] it was 7.1 µM; in that of `COc1cccc(-c2no[n+]([O-])c2C#N)c1` [Compound 33, 3-cyano-4-(3-methoxyphenyl)-1,2,5-oxadiazole-2-oxide], 8.9 µM.

For `N#Cc1c(-c2ccc(Br)cc2)no[n+]1[O-]` [Compound 23, 4-(4-bromophenyl)-3-cyano-1,2,5-oxadiazole-2-oxide], in assay [1] (read-out: TGR IC50), the half-inhibitory concentration (IC50) turned out to be 3.5 µM. Still for that read-out and setting: the figure for `N#Cc1c(-c2ccc(O)cc2)no[n+]1[O-]` [Compound 48, 3-cyano-4-(4-hydroxyphenyl)-1,2,5-oxadiazole-2-oxide] is 17.9 µM. Consider `N#Cc1c(-c2ccccc2)no[n+]1[O-]` [Compound 49, reference compound], for which the IC50 in assay [1] (read-out: TGR IC50) came out at 6.3 µM. Also, the “Approximate ET100 (time for 100% of the worms to die)” value in assay [2] (compound at 10 μM, RPMI 1640, 10% FCS, pH 7) fell in the range of 16 to 18 h.

With `Cc1ccc(-c2no[n+]([O-])c2C#N)cc1` [Compound 27, 3-cyano-4-p-tolyl-1,2,5-oxadiazole-2-oxide], the half-maximal inhibitory concentration (IC50) in assay [1] (read-out: TGR IC50) came to 11.2 µM. As to `N#Cc1c(-c2ccc(-c3ccccc3)cc2)no[n+]1[O-]` [Compound 28, 4-(biphenyl-4-yl)-3-cyano-1,2,5-oxadiazole-2-oxide], the concentration for half-maximal inhibition (IC50) in assay [1] (read-out: TGR IC50) came out at 15.8 µM. In the case of `N#Cc1c(-c2cc(F)cc(-c3no[n+]([O-])c3C#N)c2)no[n+]1[O-]` [Compound 45, 4,4′-(5-fluoro-1,3-phenylene)bis(3-cyano-1,2,5-oxadiazole-2-oxide)], the IC50 in assay [1] (read-out: TGR IC50) came to 0.48 µM. The “worms judged to be dead” value in assay [2] amounted to 100%. Regarding `COc1cc(-c2no[n+]([O-])c2C#N)cc(OC)c1OC` [Compound 38, 3-cyano-4-(3,4,5-trimethoxyphenyl)-1,2,5-oxadiazole-2-oxide], the IC50 in assay [1] (read-out: TGR IC50) came to 8.9 µM. `N#Cc1c(-c2cccc(Br)c2)no[n+]1[O-]` [Compound 31, 4-(3-bromophenyl)-3-cyano-1,2,5-oxadiazole-2-oxide]: in assay [1] (read-out: TGR IC50), the IC50 came to 2.8 µM. `N#Cc1c(-c2cccc(Cl)c2)no[n+]1[O-]` [Compound 30, 4-(3-chlorophenyl)-3-cyano-1,2,5-oxadiazole-2-oxide]: the IC50 in assay [1] (read-out: TGR IC50) is 3.5 µM. On the same count and under the same terms, the figure for `[O-][n+]1onc(-c2ccccc2)c1CO` [Compound 51] is 11.2 µM. Same read-out and setting: in the case of `N#Cc1c(-c2ccc(F)c(Br)c2)no[n+]1[O-]` [Compound 35, 4-(3-bromo-4-fluorophenyl)-3-cyano-1,2,5-oxadiazole-2-oxide] it was 2.8 µM; in that of `N#Cc1c(-c2cccc([N+](=O)[O-])c2)no[n+]1[O-]` [Compound 55, 3-cyano-4-(3-nitrophenyl)-1,2,5-oxadiazole-2-oxide], 2.2 µM.

A word on the IC50: it is the midpoint of a concentration-inhibition curve.
